Experimental data reported in patent US11407736B2 (priority 2019, dated 2022).
Read-outs that look alike come from different tables or passages of the source.

How the values were obtained:
U937 cells = test: U937 cell necroptosis assay (TNFa + zVAD, CellTiter-Glo); format: cell-based, human; conditions: Homo sapiens
Method: (§1) In this example, U937 and L929 cells were exposed to compounds of the present disclosure and a cell necroptosis assay was conducted to evaluate the compounds' activity against human RIP1 and murine RIP1.
(§2) U937 and L929 cells were obtained from the American Type Culture Collection (Manassa, Va., USA). Both cells were maintained in logarithmic growth phase in complete RPMI 1640 media (Sigma, ST Louis, Mo., USA) supplemented with 10% fetal bovine serum (Sigma, ST Louis, Mo., USA) at 37° C. with 5% CO2. For necroptosis assay, L929 cells were plated for 18 h in 100 μL/well medium at 10K cells/well in Costar 96-well black clear-bottom plates (Fisher Scientific, Hampton, N.H., USA); U937 cells were plated on the day of the assay in 50 4/well medium containing 60 uM zVAD-fink (Lonza, Basel, Switzerland) at 50K cells/well. Medium from L929 cells were removed from the 96-well plates and replaced with 50 μL/well new medium containing 40 uM zVAD-fink. Each compound of the present disclosure evaluated in this example was serially diluted in DMSO from 2.5 mM in 4-fold dilutions, and then diluted 1:125 in complete medium. 50 μL/well 2× of the compound was then added to the cells in the plates. The cells were pre-incubated with the compound for 1 hour at 37° C. with 5% CO2 and before addition of 10 μL/well 1 1×TNFa (Peprotech, Rocky Hill, N.J., USA) to give a final concentration of 2 ng/mL for TNFa. The relative amount of necroptosis cells was determined by luminescent using a Wallac Victor2 Luminometer (PerkinElmer, Waltham, Mass., USA) and a CellTiter-Glo® Luminescent Cell Viability Reagent Assay (Promega, Madison, Wis., USA) added per manufacturer instructions after 18 hours of TNFa stimulation at 37° C. with 5% CO2. This example establishes that embodiments of the compounds described herein have unexpectedly potent activity against human RIP1 and murine RIP1, which allows their assessment in in vivo mouse models of disease.

L929 cells = test: L929 cell necroptosis assay (TNFa + zVAD, CellTiter-Glo); format: cell-based, murine; conditions: Mus musculus
Method: as §1
as §2, with “The cells were pre-incubated with the compound for 1 hour at 37° C. with 5% CO2 and before addition of 10 μL/well 1 1×TNFa (Peprotech, Rocky Hill, N.J., USA) to give a final concentration of 2 ng/mL for TNFa.” left out, “CO2.” for “CO2. This example establishes that embodiments of the compounds described herein have unexpectedly potent activity against human RIP1 and murine RIP1, which allows their assessment in in vivo mouse models of disease.”

[1] = U-937, U937 cells, TNFa + zVAD, read-out: U937 Zvad TNF CTG Recovery, U937, TNFa + zVAD (IC50)
[2] = L929, L929 cells, TNFa + zVAD, read-out: L929-CTG-recovery, L929, TNFa + zVAD (IC50)

`[2H]C([2H])([2H])C(O)(C#Cc1ccc2c(c1)N(C)C(=O)[C@@H](NC(=O)c1cc(Oc3ccccc3)ccn1)CO2)C([2H])([2H])[2H]` [Compound I-68, (S)—N-(7-(3-hydroxy-3-(methyl-d3)but-1-yn-1-yl-4,4,4-d3)-5-methyl-4-oxo-2,3,4,5-tetrahydrobenzo[b][1,4]oxazepin-3-yl)-4-phenoxypicolinamide] gave an IC50 (U937 cells; [1]) of 0.7 nM and an IC50 (L929 cells; [2]) of 0.3 nM.

For `[2H]C([2H])([2H])C(O)(C#Cc1ccc2c(c1)N(C)C(=O)[C@@H](NC(=O)c1n[nH]c(Cc3ccccc3)n1)CO2)C([2H])([2H])[2H]` [Compound I-69, (S)-5-benzyl-N-(7-(3-hydroxy-3-(methyl-d3)but-1-yn-1-yl-4,4,4-d3)-5-methyl-4-oxo-2,3,4,5-tetrahydrobenzo[b][1,4]oxazepin-3-yl)-1H-1,2,4-triazole-3-carboxamide], the IC50 (U937 cells; [1]) was 2.2 nM and the IC50 (L929 cells; [2]) was 0.9 nM.

`CN1C(=O)[C@@H](NC(=O)c2n[nH]c(Cc3ccccc3)n2)COc2ccc(/C=C(\Cl)C(C)(C)O)cc21` [Compound I-94, (S,Z)-5-benzyl-N-(7-(2-chloro-3-hydroxy-3-methylbut-1-en-1-yl)-5-methyl-4-oxo-2,3,4,5-tetrahydrobenzo[b][1,4]oxazepin-3-yl)-1H-1,2,4-triazole-3-carboxamide] gave an IC50 (U937 cells; [1]) of 22 nM and an IC50 (L929 cells; L929 cells, TNFa + zVAD, read-out: L929-CTG-recovery, L929, TNFa + zVAD (IC50)) of 4.6 nM.

`CN1C(=O)[C@@H](NC(=O)c2cc(Oc3ccccc3)ccn2)COc2ccc(C#CC3(O)COC3)cc21` [Compound I-110, (S)—N-(7-((3-hydroxyoxetan-3-yl)ethynyl)-5-methyl-4-oxo-2,3,4,5-tetrahydrobenzo[b][1,4]oxazepin-3-yl)-4-phenoxypicolinamide] gave an IC50 (U937 cells; [1]) of 0.4 nM and an IC50 (L929 cells; [2]) of 18.8 nM.

Work on `CN1C(=O)[C@H](NC(=O)c2cc(Oc3ccccc3)ccn2)COc2ccc(C#CC(C)(C)O)cc21` [Compound I-113, (R)—N-(7-(3-hydroxy-3-methylbut-1-yn-1-yl)-5-methyl-4-oxo-2,3,4,5-tetrahydrobenzo[b][1,4]oxazepin-3-yl)-4-phenoxypicolinamide] yielded an IC50 (U937 cells; [1]) of 31.5 nM and an IC50 (L929 cells; [2]) of 2340 nM.

`CN1C(=O)[C@@H](NC(=O)c2cc(Oc3ccccc3)ccn2)COc2ccc(C#CC3(F)CNC3)cc21` [Compound I-143] showed an IC50 (U937 cells; U-937, read-out: U937 Zvad TNF CTG Recovery, U937, TNFa + zVAD (IC50), U937 cells, TNFa + zVAD) of 3.5 nM and an IC50 (L929 cells; L929, read-out: L929-CTG-recovery, L929, TNFa + zVAD (IC50), L929 cells, TNFa + zVAD) of 197 nM.

`CC(C)N1CC(F)(C#Cc2ccc3c(c2)N(C)C(=O)[C@@H](NC(=O)c2cc(Oc4ccccc4)ccn2)CO3)C1` [Compound I-166, (S)—N-(7-((3-fluoro-1-isopropylazetidin-3-yl)ethynyl)-5-methyl-4-oxo-2,3,4,5-tetrahydrobenzo[b][1,4]oxazepin-3-yl)-4-phenoxypicolinamide] gave an IC50 (U937 cells; [1]) of 1 nM and an IC50 (L929 cells; [2]) of 27.7 nM.

`CN1C(=O)[C@@H](NC(=O)c2cc(Oc3ccccc3)ccn2)COc2ccc(C#CC3(F)CN(CC(F)(F)F)C3)cc21` [Compound I-168, (S)—N-(7-((3-fluoro-1-(2,2,2-trifluoroethyl)azetidin-3-yl)ethynyl)-5-methyl-4-oxo-2,3,4,5-tetrahydrobenzo[b][1,4]oxazepin-3-yl)-4-phenoxypicolinamide] was tested, and the IC50 (U937 cells; [1]) was 0.9 nM and the IC50 (L929 cells; [2]) was 103 nM.

In the case of `CN1C(=O)[C@@H](NC(=O)c2cc(Oc3ccccc3)ccn2)COc2ccc(C#CC3(F)CN(CC4CC4)C3)cc21` [Compound I-169, (S)—N-(7-((1-(cyclopropylmethyl)-3-fluoroazetidin-3-yl)ethynyl)-5-methyl-4-oxo-2,3,4,5-tetrahydrobenzo[b][1,4]oxazepin-3-yl)-4-phenoxypicolinamide], the IC50 (U937 cells; [1]) is reported as 2.2 nM and the IC50 (L929 cells; [2]) is reported as 148 nM.

`[2H]c1c([2H])c([2H])c(Oc2ccnc(C(=O)N[C@H]3COc4ccc(C#CC5(O)COC5)cc4N(C)C3=O)c2)c([2H])c1[2H]` [Compound I-190, (S)—N-(7-((3-hydroxyoxetan-3-yl)ethynyl)-5-methyl-4-oxo-2,3,4,5-tetrahydrobenzo[b][1,4]oxazepin-3-yl)-4-(phenoxy-d5)picolinamide] showed an IC50 (U937 cells; [1]) of 0.6 nM.
